Consider 7 compounds from PMC7252619 (PLoS ONE, 2020).

SMILES strings stand for the structures. Like-named read-outs stand apart in the source and are kept apart here. A value given as a limit tells only on which side of the number the result lay.

One series addresses T1, DAPK1 (Homo sapiens, UniProt P53355).
T1 construct: purchased ReactionBiology
As to the kind of experiment: Kinase activity test (ReactionBiology), % enzyme activity relative to DMSO. The format is biochemical. The settings on record: DAPK1; for % Enzyme Activity (relative to DMSO controls), Data 1: replicate Data 1; for % Enzyme Activity (relative to DMSO controls), Data 2: replicate Data 2.

For another series, the target named is T2, CDC7 (Homo sapiens, UniProt O00311).
T2 construct: purchased ReactionBiology
T2 sequence (O00311 whole entry): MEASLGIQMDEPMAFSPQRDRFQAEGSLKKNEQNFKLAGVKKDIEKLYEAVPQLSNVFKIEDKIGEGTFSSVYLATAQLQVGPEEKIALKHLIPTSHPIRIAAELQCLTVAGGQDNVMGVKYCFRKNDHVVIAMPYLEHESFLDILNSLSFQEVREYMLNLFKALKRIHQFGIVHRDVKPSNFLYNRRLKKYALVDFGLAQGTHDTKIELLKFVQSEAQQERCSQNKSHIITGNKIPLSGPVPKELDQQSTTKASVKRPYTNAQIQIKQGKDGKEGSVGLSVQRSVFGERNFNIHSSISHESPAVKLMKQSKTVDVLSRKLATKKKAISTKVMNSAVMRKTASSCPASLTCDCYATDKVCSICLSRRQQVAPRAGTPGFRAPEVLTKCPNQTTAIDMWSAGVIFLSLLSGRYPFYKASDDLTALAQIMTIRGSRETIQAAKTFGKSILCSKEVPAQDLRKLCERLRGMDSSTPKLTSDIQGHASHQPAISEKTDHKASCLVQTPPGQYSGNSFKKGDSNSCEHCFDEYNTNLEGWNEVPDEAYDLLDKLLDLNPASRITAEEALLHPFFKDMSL
T2 sequence (Q9UBU7 whole entry partner): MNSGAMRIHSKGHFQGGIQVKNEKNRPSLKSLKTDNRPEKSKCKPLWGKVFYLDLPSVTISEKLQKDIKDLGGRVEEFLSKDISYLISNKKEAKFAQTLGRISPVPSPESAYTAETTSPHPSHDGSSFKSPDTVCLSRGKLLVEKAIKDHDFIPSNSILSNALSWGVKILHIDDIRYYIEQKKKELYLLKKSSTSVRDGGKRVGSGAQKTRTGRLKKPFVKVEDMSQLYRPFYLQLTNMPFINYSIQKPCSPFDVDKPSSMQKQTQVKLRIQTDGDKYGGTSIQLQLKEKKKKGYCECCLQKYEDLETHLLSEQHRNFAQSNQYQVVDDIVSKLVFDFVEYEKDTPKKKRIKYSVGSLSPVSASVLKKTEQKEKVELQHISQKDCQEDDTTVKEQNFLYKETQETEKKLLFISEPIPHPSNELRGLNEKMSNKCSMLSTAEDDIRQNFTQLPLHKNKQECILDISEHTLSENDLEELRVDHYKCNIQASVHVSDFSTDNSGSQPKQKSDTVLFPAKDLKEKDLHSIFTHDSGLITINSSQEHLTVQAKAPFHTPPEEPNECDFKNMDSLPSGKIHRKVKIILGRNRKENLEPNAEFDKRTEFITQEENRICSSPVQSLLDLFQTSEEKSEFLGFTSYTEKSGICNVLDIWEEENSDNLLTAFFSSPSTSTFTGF
Described as above. The format is biochemical. The settings on record: CDC7; for % Enzyme Activity (relative to DMSO controls), Data 1: replicate Data 1; for % Enzyme Activity (relative to DMSO controls), Data 2: replicate Data 2.

A further series has as its target T3, CK1d (Homo sapiens, UniProt P48730).
T3 construct: purchased ReactionBiology
The series is described as above. The class given is biochemical. The following applies: CK1d.

The target in the next series is T4, EPHB4 (Homo sapiens, UniProt P54760).
T4 construct: purchased ReactionBiology
T4 sequence (P54760 16-987): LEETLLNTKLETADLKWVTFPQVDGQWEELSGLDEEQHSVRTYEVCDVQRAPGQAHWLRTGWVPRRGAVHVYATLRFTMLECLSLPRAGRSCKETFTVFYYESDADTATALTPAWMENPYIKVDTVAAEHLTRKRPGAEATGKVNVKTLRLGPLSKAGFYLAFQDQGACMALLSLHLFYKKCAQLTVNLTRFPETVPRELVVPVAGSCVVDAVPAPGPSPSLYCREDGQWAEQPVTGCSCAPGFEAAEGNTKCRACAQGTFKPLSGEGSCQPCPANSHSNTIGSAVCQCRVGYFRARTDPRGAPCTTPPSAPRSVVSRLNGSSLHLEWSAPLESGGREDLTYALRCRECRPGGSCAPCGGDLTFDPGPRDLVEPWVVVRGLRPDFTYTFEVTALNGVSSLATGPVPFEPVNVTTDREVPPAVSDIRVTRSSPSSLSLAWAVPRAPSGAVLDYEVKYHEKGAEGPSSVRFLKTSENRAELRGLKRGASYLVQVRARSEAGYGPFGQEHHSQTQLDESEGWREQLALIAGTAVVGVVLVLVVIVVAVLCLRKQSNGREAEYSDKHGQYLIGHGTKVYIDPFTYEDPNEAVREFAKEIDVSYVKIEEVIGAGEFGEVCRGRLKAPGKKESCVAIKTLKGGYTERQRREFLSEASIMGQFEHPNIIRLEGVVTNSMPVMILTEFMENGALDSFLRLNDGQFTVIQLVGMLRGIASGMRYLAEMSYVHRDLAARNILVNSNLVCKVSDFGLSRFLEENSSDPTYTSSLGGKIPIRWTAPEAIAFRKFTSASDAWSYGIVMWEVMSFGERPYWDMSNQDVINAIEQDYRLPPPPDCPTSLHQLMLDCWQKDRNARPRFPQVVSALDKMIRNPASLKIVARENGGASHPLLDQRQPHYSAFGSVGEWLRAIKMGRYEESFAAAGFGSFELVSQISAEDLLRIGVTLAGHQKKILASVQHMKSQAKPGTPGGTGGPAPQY
The series is described as above. The format is biochemical. The following applies: EPHB4; for % Enzyme Activity (relative to DMSO controls), Data 1: replicate Data 1; for % Enzyme Activity (relative to DMSO controls), Data 2: replicate Data 2.

Another series has as its target VEGFR2 (Homo sapiens, UniProt P35968). The series is described as above. The format is biochemical. Set-up: purchased ReactionBiology. The following applies: VEGFR2; for % Enzyme Activity (relative to DMSO controls), Data 1: replicate Data 1; for % Enzyme Activity (relative to DMSO controls), Data 2: replicate Data 2.
A short description of series [1]: WST-1 cytotoxicity assay on Jurkat cells (T-cell line). The class given is cell-based, human. The settings on record: human, Jurkat cells (T-cell line), mean of 4 independent measures, read-out: Cytotoxicity, WST-1 Jurkat IC 50 (µM) Mean. (Formazan colour is commonly taken as a measure of viable cells.)
Description: (§1) Compounds were prepared as 10 mM stock solutions in dimethylsulfoxide (DMSO)and were tested at 50-10-1-0.1-0.01 and 0.001 μM in the 4 assays.
The human B cell line RPMI1788 (American Type Culture Collection, USA) and the human T cell line Jurkat (European Collection of Cell Cultures, ECACC, England) were maintained in RPMI1640 culture medium (BioWhittaker®, Lonza, Verviers, Belgium) containing 10% foetal calf serum (FCS, HyClone® Thermo Scientific, United Kingdom) and 5 μg/mL gentamicin sulphate (BioWhittaker®, Lonza, Verviers, Belgium) at 37°C and 5% CO2.
WST-1 assays on RPMI-1788 cells and Jurkat cells were performed as follows: 20 μL of test compound dilution were added to each well containing exponential growing cells and the plates were incubated for 48 h at 37°C, 5% CO2. Untreated cells and positive control (1% triton X-100, for the last 15 min) served as reference for maximum and minimum viability. At the end of incubation 100 μL of supernatant were removed and replaced by 10 μL of WST-1 solution (Cell Proliferation Reagent WST-1, Roche Applied Science).
The next series addresses T5, NEK2 (Homo sapiens, UniProt P51955).
T5 construct: purchased ReactionBiology
T5 sequence (P51955 1-445): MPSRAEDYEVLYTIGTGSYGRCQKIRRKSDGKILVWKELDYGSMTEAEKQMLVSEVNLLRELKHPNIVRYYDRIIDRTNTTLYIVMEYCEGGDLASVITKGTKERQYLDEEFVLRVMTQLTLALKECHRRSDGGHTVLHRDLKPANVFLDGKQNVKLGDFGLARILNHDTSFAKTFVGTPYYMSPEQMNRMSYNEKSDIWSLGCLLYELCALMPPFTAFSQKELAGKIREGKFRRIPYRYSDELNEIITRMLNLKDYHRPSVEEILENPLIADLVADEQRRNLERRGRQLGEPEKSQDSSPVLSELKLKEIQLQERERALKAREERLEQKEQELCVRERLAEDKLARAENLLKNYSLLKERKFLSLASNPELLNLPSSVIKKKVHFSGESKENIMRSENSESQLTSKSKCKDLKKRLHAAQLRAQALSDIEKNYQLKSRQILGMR
Briefly: Kinase activity test (ReactionBiology), % enzyme activity relative to DMSO. The format is biochemical. The settings on record: NEK2.

The nature of series [2]: WST-1 cytotoxicity assay on RPMI1788 cells (B-cell line). The class given is cell-based, human. The following applies: human, RPMI1788 cells (B-cell line), mean of 4 independent measures, read-out: Cytotoxicity, WST-1 RPMI 1788 IC 50 (µM) Mean.
Series [3] relates to human PBMCs (responder cells) with RPMI1788 stimulator cells. Briefly: Mixed Lymphocyte Reaction (MLR, T cell assay), 3H-thymidine incorporation. The format is cell-based. The settings on record: Homo sapiens, RPMI-1788; mean of 4 independent measures; read-out: T-cell efficacy, MLR IC 50 (µM) Mean. Background: Uptake of a labelled nucleoside into DNA is a usual measure of proliferation.

The subject of another series is human CD19+ B cells. As to the kind of experiment: B-cell assay: IgG production of ODN2006-stimulated primary B cells (AlphaLISA). The settings on record: Homo sapiens, B-cell, 168 h, read-out: B-cell IC50 (μM). The format is cell-based. (In general: Bead proximity is the source of the signal in Alpha formats.)
[4] abbreviates: 1 uM, Average, read-out: % Enzyme Activity (relative to DMSO controls), Average.
Where [5] appears, read: 1 uM, replicate Data 1, read-out: % Enzyme Activity (relative to DMSO controls), Data 1.
Where [6] appears, read: 1 uM, replicate Data 2, read-out: % Enzyme Activity (relative to DMSO controls), Data 2.
Setting [7] is: 10 uM, Average, read-out: % Enzyme Activity (relative to DMSO controls), Average.
[8] abbreviates: 10 uM, replicate Data 1, read-out: % Enzyme Activity (relative to DMSO controls), Data 1.
The mark [9] stands for this setting: 10 uM, replicate Data 2, read-out: % Enzyme Activity (relative to DMSO controls), Data 2.
[10] abbreviates: compound 1μM, relative to DMSO controls, read-out: % Enzyme activity at 1μM.
Setting [11] is: compound 10μM, relative to DMSO controls, read-out: % Enzyme activity at 10μM.
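Throughout, for % Enzyme activity at 10μM: FDA-approved drugs chosen by structure-based repositioning, each screened at 10 or 1 µM for kinase activity, expressed as percent of DMSO controls.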
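Throughout, for % Enzyme activity at 1μM: FDA-approved drugs chosen by structure-based repositioning, each screened at 10 or 1 µM for kinase activity, expressed as percent of DMSO controls.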

T1 sequence (P53355 whole entry): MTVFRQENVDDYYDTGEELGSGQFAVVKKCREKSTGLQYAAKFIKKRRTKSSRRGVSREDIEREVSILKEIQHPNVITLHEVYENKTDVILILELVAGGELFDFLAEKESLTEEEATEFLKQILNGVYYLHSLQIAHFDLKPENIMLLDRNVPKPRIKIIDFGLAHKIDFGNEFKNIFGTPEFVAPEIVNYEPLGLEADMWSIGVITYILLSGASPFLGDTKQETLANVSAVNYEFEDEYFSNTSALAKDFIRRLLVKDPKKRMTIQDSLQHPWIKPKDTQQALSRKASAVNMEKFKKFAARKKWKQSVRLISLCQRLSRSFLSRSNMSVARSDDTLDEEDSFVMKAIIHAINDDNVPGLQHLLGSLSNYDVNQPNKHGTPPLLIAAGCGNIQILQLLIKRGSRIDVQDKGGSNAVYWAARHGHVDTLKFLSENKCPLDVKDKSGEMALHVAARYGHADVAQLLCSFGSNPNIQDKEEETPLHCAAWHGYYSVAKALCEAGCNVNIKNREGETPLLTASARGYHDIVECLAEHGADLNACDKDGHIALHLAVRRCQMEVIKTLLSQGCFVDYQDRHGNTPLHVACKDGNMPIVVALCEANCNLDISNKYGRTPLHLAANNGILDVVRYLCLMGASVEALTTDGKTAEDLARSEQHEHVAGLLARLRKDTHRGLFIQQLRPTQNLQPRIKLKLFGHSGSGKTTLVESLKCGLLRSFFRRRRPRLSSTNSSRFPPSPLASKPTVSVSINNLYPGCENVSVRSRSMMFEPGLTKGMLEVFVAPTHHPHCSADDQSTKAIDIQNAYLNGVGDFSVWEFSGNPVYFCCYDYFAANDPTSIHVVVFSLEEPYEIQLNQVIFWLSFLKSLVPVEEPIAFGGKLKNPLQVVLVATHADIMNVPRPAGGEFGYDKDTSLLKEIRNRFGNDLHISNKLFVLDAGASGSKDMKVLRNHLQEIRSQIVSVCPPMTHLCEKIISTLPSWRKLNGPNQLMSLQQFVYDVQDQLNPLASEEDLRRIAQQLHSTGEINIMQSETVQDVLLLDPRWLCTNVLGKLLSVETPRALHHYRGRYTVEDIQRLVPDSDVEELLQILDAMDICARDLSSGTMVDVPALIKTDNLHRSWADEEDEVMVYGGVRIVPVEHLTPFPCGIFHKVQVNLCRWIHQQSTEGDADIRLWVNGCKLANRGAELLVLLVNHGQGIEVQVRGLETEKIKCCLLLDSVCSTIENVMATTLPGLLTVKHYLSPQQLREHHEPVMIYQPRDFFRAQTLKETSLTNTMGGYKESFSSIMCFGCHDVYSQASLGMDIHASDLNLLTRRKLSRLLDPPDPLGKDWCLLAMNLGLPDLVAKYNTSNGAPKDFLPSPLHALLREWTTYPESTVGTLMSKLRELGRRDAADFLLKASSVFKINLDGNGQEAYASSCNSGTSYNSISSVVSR
Chain of VEGFR2 (P35968 20-1356): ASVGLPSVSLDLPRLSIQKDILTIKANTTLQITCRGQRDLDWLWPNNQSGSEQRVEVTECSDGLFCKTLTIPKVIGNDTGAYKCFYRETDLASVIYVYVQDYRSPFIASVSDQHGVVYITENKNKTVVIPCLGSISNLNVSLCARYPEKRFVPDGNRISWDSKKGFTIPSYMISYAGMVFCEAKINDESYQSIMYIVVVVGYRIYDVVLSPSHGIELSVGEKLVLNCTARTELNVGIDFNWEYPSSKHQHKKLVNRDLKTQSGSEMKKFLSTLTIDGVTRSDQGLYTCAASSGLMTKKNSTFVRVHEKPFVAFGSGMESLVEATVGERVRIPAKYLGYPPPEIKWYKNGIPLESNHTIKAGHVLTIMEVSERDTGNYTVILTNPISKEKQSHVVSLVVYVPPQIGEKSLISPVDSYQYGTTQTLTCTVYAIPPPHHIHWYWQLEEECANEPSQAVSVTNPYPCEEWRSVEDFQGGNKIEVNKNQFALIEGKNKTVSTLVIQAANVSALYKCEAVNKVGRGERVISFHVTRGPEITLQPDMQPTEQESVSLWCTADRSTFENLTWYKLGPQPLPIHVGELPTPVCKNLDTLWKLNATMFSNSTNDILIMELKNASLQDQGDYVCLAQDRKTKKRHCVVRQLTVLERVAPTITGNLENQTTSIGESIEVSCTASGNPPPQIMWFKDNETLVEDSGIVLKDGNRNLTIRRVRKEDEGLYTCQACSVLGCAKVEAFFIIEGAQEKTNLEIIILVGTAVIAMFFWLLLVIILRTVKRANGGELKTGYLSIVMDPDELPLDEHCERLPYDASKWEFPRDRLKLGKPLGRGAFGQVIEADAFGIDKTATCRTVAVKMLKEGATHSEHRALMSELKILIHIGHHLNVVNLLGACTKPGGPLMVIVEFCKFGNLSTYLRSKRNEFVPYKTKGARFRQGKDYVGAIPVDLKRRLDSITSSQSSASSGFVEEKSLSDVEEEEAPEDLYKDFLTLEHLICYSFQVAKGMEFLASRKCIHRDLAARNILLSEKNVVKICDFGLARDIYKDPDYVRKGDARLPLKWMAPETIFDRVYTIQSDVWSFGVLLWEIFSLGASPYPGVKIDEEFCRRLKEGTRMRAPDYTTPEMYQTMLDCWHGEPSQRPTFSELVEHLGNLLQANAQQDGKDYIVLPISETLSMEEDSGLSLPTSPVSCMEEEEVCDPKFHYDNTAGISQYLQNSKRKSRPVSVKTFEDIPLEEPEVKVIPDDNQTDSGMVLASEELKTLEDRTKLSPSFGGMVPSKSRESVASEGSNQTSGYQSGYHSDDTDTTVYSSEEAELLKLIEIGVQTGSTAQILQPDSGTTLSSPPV
T3 sequence (P48730 whole entry): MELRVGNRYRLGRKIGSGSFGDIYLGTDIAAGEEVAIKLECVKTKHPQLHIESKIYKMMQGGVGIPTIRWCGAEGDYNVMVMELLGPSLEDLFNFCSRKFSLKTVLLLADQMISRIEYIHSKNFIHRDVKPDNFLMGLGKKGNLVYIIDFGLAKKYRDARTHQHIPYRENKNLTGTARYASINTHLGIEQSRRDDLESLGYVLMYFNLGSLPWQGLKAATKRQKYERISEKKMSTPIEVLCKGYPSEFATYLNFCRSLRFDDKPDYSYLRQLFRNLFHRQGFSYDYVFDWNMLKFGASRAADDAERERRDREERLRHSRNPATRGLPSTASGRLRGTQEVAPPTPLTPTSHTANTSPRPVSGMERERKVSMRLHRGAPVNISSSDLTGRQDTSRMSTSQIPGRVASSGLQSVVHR
Description for human CD19+ B cells: as §1
Blood samples of healthy volunteers were collected at the Red Cross of Mechelen, Belgium.
Highly purified naive peripheral human B cells were separated from fresh human PBMCs on magnetic columns by positive selection using CD19 magnetic beads according to the manufacturer’s instructions (MACS Miltenyi Biotech, Leiden, The Netherlands). […] Freshly isolated human CD19+ B cells were then plated at 25 000 cells per well in a 384-well plate (Perkin Elmer, Zaventem, Belgium) in 55 μL in DMEM medium containing 10% FCS and 5 μg/mL gentamicin sulphate. After 7 days of stimulation with 0.1 μM ODN2006 (InvivoGen, Toulouse, France), supernatant was taken for analysis of IgG using the AlphaLISA human IgG kit according to the manufacturer’s instructions (Perkin Elmer, Zaventem, Belgium).

For `CC(=O)Nc1ccc(O)cc1` [Acetaminophen], the “% Enzyme Activity (relative to DMSO controls), Data 1” value on DAPK1 (1 uM) is on record as 112.11%; at DAPK1 (10 uM), 98.16%; at CDC7 (1 uM), 78.79%; at CDC7 (10 uM), 85.04%; at CK1d (1 uM, replicate Data 1), 106.63%; at EPHB4 (1 uM) it was 95.30%. For the same compound, the “% Enzyme Activity (relative to DMSO controls), Data 1” value on EPHB4 (10 uM) came out at 99.39%.

Turning to `O=C(N[C@H](CO)[C@H](O)c1ccc([N+](=O)[O-])cc1)C(Cl)Cl` [Chloramphenicol], the “% Enzyme Activity (relative to DMSO controls), Average” value at DAPK1 (1 uM) stood at 109.45%; on DAPK1 (10 uM), 99.12%; at CDC7 (1 uM), 70.23%; on CDC7 (10 uM), 72.94%; at CK1d (1 uM, Average), 107.32%; on VEGFR2 (1 uM), 102.81%. For the same compound, the results for the “% Enzyme Activity (relative to DMSO controls), Average” value on VEGFR2 (10 uM), at EPHB4 (1 uM) and on EPHB4 (10 uM) were 107.54%, 98.03% and 95.14%, respectively.

`CC/C(=C(/CC)c1ccc(O)cc1)c1ccc(O)cc1` [Diethylstilbestrol, reference compound]: the IC50 at 48 h in [1] is 6.7 µM; in series [2] it was 31.4 µM. Also, the remaining activity at 1 µM on CK1d (setting [4]) came out at 106%; on CK1d (setting [5]), 107%; at CK1d (setting [6]) it was 104%; at NEK2 (setting [4]), 97.9%; on NEK2 (setting [5]) it was 94.5%; at NEK2 (setting [6]) it was 101%. On NEK2 (setting [10]), the remaining activity at 1 µM is 97.9%. The remaining activity at 10 µM is 84.8% at CK1d (Average, read-out: % Enzyme Activity (relative to DMSO controls), Average); 84.6% on CK1d (replicate Data 1, read-out: % Enzyme Activity (relative to DMSO controls), Data 1); 85.1% at CK1d (replicate Data 2, read-out: % Enzyme Activity (relative to DMSO controls), Data 2); 50.7% at NEK2 (setting [7]); 44.7% on NEK2 (setting [8]); 56.7% on NEK2 (setting [9]). The remaining activity at 10 µM at NEK2 (setting [11]) stood at 50.7%.

Regarding `C[C@]12CCC(=O)C=C1CC[C@@H]1[C@@H]2[C@@H](O)C[C@@]2(C)[C@H]1CC[C@]2(O)C(=O)CO` [Hydrocortisone], the “% Enzyme Activity (relative to DMSO controls), Average” value is recorded as 114.18% on DAPK1 (1 uM); 104.62% on DAPK1 (10 uM); 74.38% at CDC7 (1 uM); 75.76% on CDC7 (10 uM); 99.23% at VEGFR2 (1 uM); 102.28% at VEGFR2 (10 uM). The “% Enzyme Activity (relative to DMSO controls), Average” value at EPHB4 (1 uM) turned out to be 102.86%; at EPHB4 (10 uM), 91.65%. The “% Enzyme Activity (relative to DMSO controls), Data 1” value at DAPK1 (1 uM) amounted to 116.14%; on DAPK1 (10 uM), 110.58%; at CDC7 (1 uM), 77.32%; at CDC7 (10 uM), 77.92%; on VEGFR2 (1 uM), 98.18%; on VEGFR2 (10 uM) it was 99.63%. The “% Enzyme Activity (relative to DMSO controls), Data 1” value turned out to be 105.83% at EPHB4 (1 uM) and 91.79% at EPHB4 (10 uM). The “% Enzyme Activity (relative to DMSO controls), Data 2” value on DAPK1 (1 uM) stood at 112.22%; on DAPK1 (10 uM) it was 98.66%; at CDC7 (1 uM), 71.43%; on CDC7 (10 uM) it was 73.60%; on VEGFR2 (1 uM), 100.27%; on VEGFR2 (10 uM), 104.92%. The “% Enzyme Activity (relative to DMSO controls), Data 2” value is given as 99.88% at EPHB4 (1 uM) and 91.51% on EPHB4 (10 uM).

`CN1CCN(CCCN2c3ccccc3Sc3ccc(Cl)cc32)CC1` [Prochlorperazine, reference compound]: the IC50 at 48 h in series [1] turned out to be 21.9 µM; in series [2], 9.63 µM. Besides, the remaining activity at 1 µM at NEK2 (setting [4]) is 70.1%; on NEK2 (setting [5]), 67.7%; on NEK2 (setting [6]) it was 72.5%; at NEK2 (setting [10]), 70.1%. Moreover, the remaining activity at 10 µM at NEK2 (setting [7]) came out at 68.7%; at NEK2 (setting [8]), 69.6%; at NEK2 (setting [9]), 67.8%; at NEK2 (setting [11]), 68.7%.

Turning to `C[C@@H]1CCN(C(=O)CC#N)C[C@@H]1N(C)c1ncnc2[nH]ccc12` [Tofacitinib], the IC50 at 48 h in series [1] and in series [2] was more than 50 µM throughout.

`N[C@@H](Cc1cc(I)c(Oc2ccc(O)c(I)c2)c(I)c1)C(=O)O` [Triiodothyronine]: the IC50 was 44.2 µM in series [3] and 36.8 µM in the series with human CD19+ B cells. For the same compound, the IC50 at 48 h in series [1] was more than 50 µM.
